Common to all, as to format: functional
Assay [1] deals with Mus musculus. The experiment in a line: Significant suppressive activity of delayed type hypersensitivity (DTH) with out inhibition of humoral immunity in mice by oral administration at dose of 400 mg/kg.
The test system of assay [2] is Mus musculus. Description: Significant suppressive activity of delayed type hypersensitivity (DTH) with out inhibition of humoral immunity in mice by oral administration at dose of 50 mg/kg.
Assay [3] concerns Mus musculus. Description: Compound was tested for its significant suppressive activity of delayed type hypersensitivity (DTH) with out inhibition of humoral immunity in mice by oral administration at dose of 200 mg/kg.
For assay [4], the system named is Mus musculus. Description: Compound was tested for its significant suppressive activity of delayed type hypersensitivity (DTH) with out inhibition of humoral immunity in mice by oral administration at dose of 25 mg/kg.

As a reminder, the inhibition in vivo is the relative decrease from the control value, in per cent.

The structures appear in SMILES notation.

`Cc1ccc(-c2cn3c(n2)sc2ccccc23)cc1O`: in the assay on Mus musculus [1], the “Increase in ear thickness” value was 3.2 1/100mm and the inhibition in vivo at 400 mg/kg is 39.6%. Moreover, in the assay on Mus musculus [2], the “Increase in ear thickness” value is given as 3.3 1/100mm and the inhibition in vivo at 50 mg/kg was 37.7%.
The matching figures for `CS(=O)(=O)Nc1cccc(-c2cn3c(n2)sc2ccccc23)c1`: 3.6 1/100mm, 32.1%, 3.8 1/100mm and 28.3%.
Regarding `COC(=O)c1cc(-c2cn3c(n2)sc2ccccc23)ccc1O`, in the assay on Mus musculus [1], the “Increase in ear thickness” value is given as 2.3 1/100mm and the inhibition in vivo at 400 mg/kg is 42.5%. Further, in the assay with Mus musculus [2], the “Increase in ear thickness” value is given as 4.2 1/100mm and the inhibition in vivo at 50 mg/kg is -5%.
In the same order, the values of `O=[N+]([O-])c1cccc(-c2cn3c(n2)sc2ccccc23)c1` are 2.1 1/100mm, 60.4%, 3.2 1/100mm and 39.6%.
The matching figures for `Oc1cccc(-c2cn3c(n2)sc2cc(O)ccc23)c1`: 2.4 1/100mm, 41.5%, 2.3 1/100mm and 43.9%.
The matching figures for `Oc1ccccc1-c1cn2c(n1)sc1ccccc12`: 1.4 1/100mm, 65%, 3.5 1/100mm and 12.5%.
As for `Oc1ccc(-c2cn3c(n2)sc2ccccc23)cc1`, in the assay on Mus musculus [1], the “Increase in ear thickness” value was 3.6 1/100mm and the inhibition in vivo at 400 mg/kg amounted to 40.9%. Besides, in the assay with Mus musculus [2], the “Increase in ear thickness” value was 3.4 1/100mm and the inhibition in vivo at 50 mg/kg came out at 44.2%.
In the same order, the values of `N#Cc1cccc(-c2cn3c(n2)sc2ccccc23)c1` are 4.7 1/100mm, -46.9%, 3 1/100mm and 6.3%.
In the same order, the values of `Brc1ccc(-c2cn3c(n2)sc2ccccc23)cc1` are 4.9 1/100mm, 5.8%, 5.5 1/100mm and -5.8%.
The matching figures for `Oc1cccc(-c2cn3c(nc4ccccc43)s2)c1`: 3.8 1/100mm, 7.3%, 2.3 1/100mm and 43.9%.
Turning to `Ic1ccc(-c2cn3c(n2)sc2ccccc23)cc1`, in the assay with Mus musculus [1], the “Increase in ear thickness” value is on record as 5.3 1/100mm and the inhibition in vivo at 400 mg/kg is -1.9%. Also, in the assay on Mus musculus [2], the “Increase in ear thickness” value is listed as 6.4 1/100mm and the inhibition in vivo at 50 mg/kg is -23.1%.
The matching figures for `Cc1ccc2c(c1)sc1nc(-c3cccc(O)c3)cn12`: 3.8 1/100mm, 5%, 4.5 1/100mm and -12.5%.
As to `COc1ccccc1-c1cn2c(n1)sc1ccccc12`, in the assay with Mus musculus [1], the “Increase in ear thickness” value is reported as 4.7 1/100mm and the inhibition in vivo at 400 mg/kg came to 17.5%. In the assay with Mus musculus [2], the “Increase in ear thickness” value is recorded as 5.5 1/100mm and the inhibition in vivo at 50 mg/kg worked out at 3.5%.
As to `CC(=O)Nc1cccc(-c2cn3c(n2)sc2ccccc23)c1`, in the assay on Mus musculus [1], the “Increase in ear thickness” value is recorded as 3.9 1/100mm and the inhibition in vivo at 400 mg/kg is 26%. Moreover, in the assay with Mus musculus [2], the “Increase in ear thickness” value is 3.5 1/100mm and the inhibition in vivo at 50 mg/kg is 34%.
With `Cc1ccc(-c2cn3c(n2)sc2ccccc23)cc1S(C)(=O)=O`, in the assay on Mus musculus [1], the “Increase in ear thickness” value is recorded as 4.9 1/100mm and the inhibition in vivo at 400 mg/kg is 3.9%. For the same molecule, in the assay on Mus musculus [2], the “Increase in ear thickness” value is given as 1.9 1/100mm and the inhibition in vivo at 50 mg/kg stood at 53.7%.
In the same order, the values of `O=[N+]([O-])c1cc(-c2cn3c(n2)sc2ccccc23)ccc1O` are 4.2 1/100mm, 20.8%, 4.1 1/100mm and 22.6%.
In the same order, the values of `COc1cccc(-c2cn3c(n2)sc2ccccc23)c1` are 2.1 1/100mm, 34.4%, 2.8 1/100mm and 12.5%.
In the same order, the values of `Cc1c(-c2cccc(O)c2)nc2sc3ccccc3n12` are 3.6 1/100mm, 16.3%, 3.9 1/100mm and 9.3%.
Consider `c1ccc(-c2cn3c(n2)sc2ccccc23)cc1`, for which, in the assay on Mus musculus [1], the “Increase in ear thickness” value was 5.7 1/100mm and the inhibition in vivo at 400 mg/kg was found to be 1.7%. In addition, in the assay on Mus musculus [2], the “Increase in ear thickness” value is reported as 6 1/100mm and the inhibition in vivo at 50 mg/kg was -3.4%.
In the same order, the values of `Nc1cccc(-c2cn3c(n2)sc2ccccc23)c1` are 4.3 1/100mm, 18.9%, 4.1 1/100mm and 22.6%.
The matching figures for `O=C(O)c1ccc(-c2cn3c(n2)sc2ccccc23)cc1`: 2.9 1/100mm, 49.1%, 3.8 1/100mm and 33.3%.
In the same order, the values of `Clc1cccc(-c2cn3c(n2)sc2ccccc23)c1` are 5.8 1/100mm, -11.5%, 5 1/100mm and 3.8%.
Consider `Clc1ccccc1-c1cn2c(n1)sc1ccccc12`, for which, in the assay with Mus musculus [1], the “Increase in ear thickness” value is 6.3 1/100mm and the inhibition in vivo at 400 mg/kg is -21.2%. In addition, in the assay on Mus musculus [2], the “Increase in ear thickness” value is on record as 5 1/100mm and the inhibition in vivo at 50 mg/kg stood at 3.8%.
In the same order, the values of `Oc1cc(O)cc(-c2cn3c(n2)sc2ccccc23)c1` are 3.6 1/100mm, 21.7%, 5.8 1/100mm and -26.1%.
The matching figures for `COc1ccc(-c2cn3c(n2)sc2ccccc23)cc1`: 4.6 1/100mm, 11.5%, 5.3 1/100mm and -1.9%.
For `O=[N+]([O-])c1ccc(-c2cn3c(n2)sc2ccccc23)cc1`, in the assay with Mus musculus [1], the “Increase in ear thickness” value is listed as 5 1/100mm and the inhibition in vivo at 400 mg/kg was 27.5%. Further, in the assay on Mus musculus [2], the “Increase in ear thickness” value was 5.4 1/100mm and the inhibition in vivo at 50 mg/kg is 21.7%.
Take `Oc1cccc(-c2cn3c(n2)oc2ccccc23)c1`: in the assay on Mus musculus [1], the “Increase in ear thickness” value was 2.9 1/100mm and the inhibition in vivo at 400 mg/kg came to 9.4%. In the assay with Mus musculus [2], the “Increase in ear thickness” value is 2.6 1/100mm and the inhibition in vivo at 50 mg/kg was determined as 18.8%.
In the same order, the values of `COC(=O)c1ccc(-c2cn3c(n2)sc2ccccc23)cc1` are 4.9 1/100mm, 14%, 6 1/100mm and -5.3%.
In the same order, the values of `COC(=O)c1cccc(-c2cn3c(n2)sc2ccccc23)c1` are 1.9 1/100mm, 64.2%, 1.9 1/100mm and 64.2%.
The matching figures for `COc1ccc(-c2cn3c(n2)sc2ccccc23)cc1O`: 4.6 1/100mm, 13.2%, 4.9 1/100mm and 7.5%.
With `Cc1ccc(-c2cn3c(n2)sc2ccccc23)cc1[S+](C)[O-]` (stereo not given), in the assay with Mus musculus [3], the “Increase in ear thickness” value is 1.9 1/100mm and the inhibition in vivo at 200 mg/kg worked out at 53.7%. Moreover, in the assay with Mus musculus [4], the “Increase in ear thickness” value was 3.9 1/100mm and the inhibition in vivo at 25 mg/kg was determined as 4.9%.
Turning to `COc1ccc2c(c1)sc1nc(-c3cccc(O)c3)cn12`, in the assay with Mus musculus [1], the “Increase in ear thickness” value was 4.9 1/100mm and the inhibition in vivo at 400 mg/kg is -22.5%. For the same molecule, in the assay with Mus musculus [2], the “Increase in ear thickness” value is 4.8 1/100mm and the inhibition in vivo at 50 mg/kg was -20%.
The matching figures for `Oc1cc(-c2cn3c(n2)sc2ccccc23)ccc1Cl`: 3.7 1/100mm, 14%, 2.4 1/100mm and 44.2%.
In the same order, the values of `COC(=O)c1cccc(-c2cn3c(n2)sc2cc(O)ccc23)c1` are 5.1 1/100mm, -24.4%, 3.8 1/100mm and 7.3%.
In the same order, the values of `O=C(O)c1cccc(-c2cn3c(n2)sc2ccccc23)c1` are 3.2 1/100mm, 25.6%, 2.8 1/100mm and 34.9%.
As for `Clc1ccc(-c2cn3c(n2)sc2ccccc23)cc1`, in the assay with Mus musculus [1], the “Increase in ear thickness” value is 5.9 1/100mm and the inhibition in vivo at 400 mg/kg worked out at 14.5%. In addition, in the assay on Mus musculus [2], the “Increase in ear thickness” value is 4.8 1/100mm and the inhibition in vivo at 50 mg/kg was 30.4%.
In the same order, the values of `Fc1ccc(-c2cn3c(n2)sc2ccccc23)cc1` are 5.9 1/100mm, -13.5%, 5 1/100mm and -3.8%.
`COc1ccc2nc(NC(=O)Nc3ccccc3)sc2c1` [FRENTIZOLE]: in the assay with Mus musculus [2], the “Increase in ear thickness” value is listed as 3.5 1/100mm and the inhibition in vivo at 50 mg/kg amounted to 42.6%.
